From ChEMBL document CHEMBL1201862, “PubChem BioAssay data set” (2004)
Calls of active or inactive are those of the source.

Tests used:
[1] = target: T1, Mannose-6-phosphate isomerase (Homo sapiens, UniProt P34949); test: phosphomannose isomerase inhibition – biochemical, fluorescence intensity, confirmation (AID 1535)
T1 sequence (P34949 whole entry): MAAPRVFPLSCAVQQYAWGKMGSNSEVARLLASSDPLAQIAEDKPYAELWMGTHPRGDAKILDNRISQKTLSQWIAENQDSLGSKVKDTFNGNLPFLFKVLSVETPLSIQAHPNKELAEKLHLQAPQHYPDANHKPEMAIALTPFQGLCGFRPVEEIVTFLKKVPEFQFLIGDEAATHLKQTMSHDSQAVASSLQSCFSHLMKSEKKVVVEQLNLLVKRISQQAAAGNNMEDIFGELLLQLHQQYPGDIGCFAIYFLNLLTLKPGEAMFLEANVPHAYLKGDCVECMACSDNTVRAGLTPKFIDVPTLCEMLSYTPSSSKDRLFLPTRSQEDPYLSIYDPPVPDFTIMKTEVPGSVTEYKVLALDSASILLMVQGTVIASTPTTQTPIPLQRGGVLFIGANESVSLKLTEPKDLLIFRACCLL

Phosphomannomutase 2 = target: T2, Phosphomannomutase 2 (Homo sapiens, UniProt O15305); test: Counter screen SAR assay for PMM2 inhibitors via a fluorescence intensity assay. [Related pubchem assays (depositor defined):AID1545, AID1574]
T2 sequence (O15305 whole entry): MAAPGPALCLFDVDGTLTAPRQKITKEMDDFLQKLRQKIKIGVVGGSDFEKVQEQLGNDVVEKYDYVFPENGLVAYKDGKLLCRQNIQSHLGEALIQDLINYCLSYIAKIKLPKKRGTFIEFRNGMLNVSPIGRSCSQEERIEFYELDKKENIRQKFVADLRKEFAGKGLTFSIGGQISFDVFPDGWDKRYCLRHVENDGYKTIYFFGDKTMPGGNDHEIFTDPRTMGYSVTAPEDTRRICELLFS

Hexokinase = target: T3, Hexokinase (Trypanosoma brucei, UniProt Q38C41); test: Confirmation assay for inhibitors of Trypanosoma brucei hexokinase 1-Analogue-first series. [Related pubchem assays (depositor defined):AID1430, AID1632, AID2516, AID2560, AID2579, AID2600, AID449725, AID492951]; type: functional
T3 sequence (Q38C41 whole entry): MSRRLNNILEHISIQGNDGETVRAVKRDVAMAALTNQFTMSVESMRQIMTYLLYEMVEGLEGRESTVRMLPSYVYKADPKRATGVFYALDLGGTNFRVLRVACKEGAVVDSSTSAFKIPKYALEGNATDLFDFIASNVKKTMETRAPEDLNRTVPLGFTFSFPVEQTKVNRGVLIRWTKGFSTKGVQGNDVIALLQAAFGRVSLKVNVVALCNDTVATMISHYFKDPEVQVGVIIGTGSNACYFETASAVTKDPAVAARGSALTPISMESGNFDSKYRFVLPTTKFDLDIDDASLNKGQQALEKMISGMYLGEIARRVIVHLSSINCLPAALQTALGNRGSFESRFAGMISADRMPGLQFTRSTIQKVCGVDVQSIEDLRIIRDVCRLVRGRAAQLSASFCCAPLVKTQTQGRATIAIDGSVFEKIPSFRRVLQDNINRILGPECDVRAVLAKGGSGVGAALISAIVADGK

Cytochrome P450 2C9 = Cytochrome P450 2C9 (Homo sapiens, UniProt P11712)
[2] = luciferase reporter signal suppression in cells – H4 neuroglioma cells, luminescence, dose response (AID 1990); type: functional, cell-based
[3] = alpha-synuclein stem-loop luciferase translation blockers – H4 neuroglioma cells, luminescence, confirmation (AID 1988); type: functional, cell-based
[4] = target: T4, Heat shock factor protein 1 (Mus musculus, UniProt P38532); test: decrease of HSF1-responsive luciferase luminescence – cell-based, NIH3T3, dose retest, confirmation (AID 2382); type: functional;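 note: NIH3T3 fibroblasts with HSF1-driven luciferase reporter stressed by proteasome inhibitor MG132; luminescence from HSF1-driven luciferase expression after 8 hours of MG132 stress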
T4 sequence (P38532 whole entry): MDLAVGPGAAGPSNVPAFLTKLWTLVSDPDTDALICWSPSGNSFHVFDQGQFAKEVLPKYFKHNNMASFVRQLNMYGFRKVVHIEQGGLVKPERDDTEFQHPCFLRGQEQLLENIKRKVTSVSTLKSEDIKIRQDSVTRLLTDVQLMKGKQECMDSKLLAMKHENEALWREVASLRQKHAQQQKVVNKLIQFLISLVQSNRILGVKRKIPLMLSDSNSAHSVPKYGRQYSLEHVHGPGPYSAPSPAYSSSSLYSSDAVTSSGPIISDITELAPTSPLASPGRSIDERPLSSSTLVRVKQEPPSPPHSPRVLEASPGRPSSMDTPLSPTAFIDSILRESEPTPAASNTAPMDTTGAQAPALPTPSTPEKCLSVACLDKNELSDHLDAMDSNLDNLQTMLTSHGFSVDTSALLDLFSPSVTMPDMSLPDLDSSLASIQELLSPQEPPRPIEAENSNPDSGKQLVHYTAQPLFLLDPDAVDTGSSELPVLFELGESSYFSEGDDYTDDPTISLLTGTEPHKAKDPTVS

HEK293 = test: HEK293T cell viability loss, resazurin readout – resazurin fluorescence, cytotoxicity control for NF-kB activator project, SAR follow-up (AID 493251); type: functional, cell-based; settings: Homo sapiens
Coagulation factor XII = target: T5, Coagulation factor XII (Homo sapiens, UniProt P00748); type: functional;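 note: activated factor XIIa alpha cleaving a fluorogenic AMC peptide substrate; inhibitor potency from loss of enzyme activity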
T5 sequence (P00748 whole entry): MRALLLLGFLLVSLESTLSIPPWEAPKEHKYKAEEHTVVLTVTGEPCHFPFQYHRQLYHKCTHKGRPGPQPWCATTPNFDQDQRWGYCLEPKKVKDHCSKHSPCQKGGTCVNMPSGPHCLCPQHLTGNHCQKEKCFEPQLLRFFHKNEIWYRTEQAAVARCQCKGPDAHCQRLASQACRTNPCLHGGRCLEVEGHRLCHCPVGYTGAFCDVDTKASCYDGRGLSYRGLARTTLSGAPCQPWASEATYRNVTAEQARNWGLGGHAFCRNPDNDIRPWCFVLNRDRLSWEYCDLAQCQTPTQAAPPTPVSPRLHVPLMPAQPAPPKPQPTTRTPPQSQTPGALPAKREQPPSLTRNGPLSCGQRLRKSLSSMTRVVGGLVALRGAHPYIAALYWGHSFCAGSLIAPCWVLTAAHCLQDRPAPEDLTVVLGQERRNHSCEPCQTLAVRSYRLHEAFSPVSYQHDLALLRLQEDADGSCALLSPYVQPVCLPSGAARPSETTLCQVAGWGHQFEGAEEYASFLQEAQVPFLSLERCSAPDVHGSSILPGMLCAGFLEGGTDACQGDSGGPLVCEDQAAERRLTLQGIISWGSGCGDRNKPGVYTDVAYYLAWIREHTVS

[5] = target: Voltage-gated inwardly rectifying potassium channel KCNH2 (Homo sapiens, UniProt Q12809); settings: Potency;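 note: confirmatory quantitative high-throughput screen measuring inhibition of hERG channel activity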
Mu-type opioid receptor = Mu-type opioid receptor (Homo sapiens, UniProt P35372); type: functional, cell-based;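 note: U2OS cells with beta-arrestin recruitment to OPRM1 by beta-gal complementation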
[6] = target: 5-hydroxytryptamine receptor 2A (Mus musculus, UniProt P35363); type: functional, cell-based;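 note: CHO-K1 cells with tagged receptor and beta-arrestin; agonist potency measured as compound-induced activation of the receptor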
[7] = target: Peroxisome proliferator-activated receptor gamma/Nuclear receptor coactivator 1 (Homo sapiens, UniProt P37231); test: TR-FRET dose response biochemical High Throughput Screening assay for agonists of the steroid receptor coactivator 1 (SRC-1) recruitment by the peroxisome proliferator-activated receptor gamma (PPAR gamma): non-selective agonists. [Related pubchem assays (depositor defined):AID1300, AID1808, AID504735, AID631]; type: protein assay
[8] = target: Peroxisome proliferator-activated receptor gamma/Nuclear receptor coactivator 2 (Homo sapiens, UniProt P37231); test: (§1) TR-FRET dose response biochemical High Throughput Screening assay for agonists of the steroid receptor coactivator 2 (SRC-2) recruitment by the peroxisome proliferator-activated receptor gamma (PPAR gamma): non-selective agonists. [Related pubchem assays: 1297, 1032 ]; type: functional
[9] = target: Peroxisome proliferator-activated receptor gamma/Nuclear receptor coactivator 3 (Homo sapiens, UniProt P37231); test: as §1, with “3 (SRC-3)” for “2 (SRC-2)”, “1301 (Confirmation screen.), 1048 (Primary screen.)]” for “1297, 1032 ]”; type: functional
[10] = target: Dual specificity tyrosine-phosphorylation-regulated kinase 1A (Rattus norvegicus, UniProt Q63470); type: biochemical, Homo sapiens
[11] = target: T6, Ubiquitin-conjugating enzyme E2 N (Homo sapiens, UniProt P61088); type: functional
T6 sequence (P61088 whole entry): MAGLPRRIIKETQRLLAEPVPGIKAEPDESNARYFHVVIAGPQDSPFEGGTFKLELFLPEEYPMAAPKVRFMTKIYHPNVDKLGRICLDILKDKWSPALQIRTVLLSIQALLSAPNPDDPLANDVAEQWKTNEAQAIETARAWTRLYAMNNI

Bcl-2-related protein A1 = target: T7, Bcl-2-related protein A1 (Mus musculus, UniProt Q07440); type: functional;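 note: confirmatory dose–response counterscreen on Bfl-1, used to check hits from a UBC13 polyubiquitin inhibitor campaign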
T7 sequence (Q07440 whole entry): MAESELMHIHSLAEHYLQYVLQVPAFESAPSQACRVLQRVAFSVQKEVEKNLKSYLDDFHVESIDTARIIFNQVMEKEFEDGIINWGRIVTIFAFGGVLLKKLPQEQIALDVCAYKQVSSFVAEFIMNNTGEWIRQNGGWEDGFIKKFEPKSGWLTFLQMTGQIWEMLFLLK

[12] = target: T6, Ubiquitin-conjugating enzyme E2 N; type: functional; remark: listed apart in the source
[13] = NIH3T3 cell viability loss – ATP luminescence, mouse fibroblasts, counter-screen, dose response (AID 2010); type: functional, cell-based;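 note: cells exposed to compound for about 90 hours before reading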
[14] = microbe, parasite or virus in culture; type: functional; settings: Mycobacterium tuberculosis
[15] = Trypanosoma cruzi growth suppression in host cells – NIH3T3 host cells, beta-gal luminescence, confirmation (AID 2044); type: functional, cell-based;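 note: intracellular parasites grown in NIH/3T3 mouse fibroblasts as host cells; luminescent beta-galactosidase reporter signal from transgenic T. cruzi replicating inside host cells; inhibitors lower the luminescence signal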
CAAX prenyl protease 2 = target: T8, CAAX prenyl protease 2 (Saccharomyces cerevisiae S288c, UniProt Q03530); type: biochemical
T8 sequence (Q03530 whole entry): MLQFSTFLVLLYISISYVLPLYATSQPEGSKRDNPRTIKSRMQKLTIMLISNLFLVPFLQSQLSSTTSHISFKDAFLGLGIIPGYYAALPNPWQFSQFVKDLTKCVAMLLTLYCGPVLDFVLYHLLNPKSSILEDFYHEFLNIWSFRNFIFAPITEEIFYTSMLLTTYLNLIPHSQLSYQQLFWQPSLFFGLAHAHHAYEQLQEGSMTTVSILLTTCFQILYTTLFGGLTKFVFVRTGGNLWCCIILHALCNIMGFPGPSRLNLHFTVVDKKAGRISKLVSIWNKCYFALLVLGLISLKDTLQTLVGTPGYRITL

Sequence of Cytochrome P450 2C9 (P11712 whole entry): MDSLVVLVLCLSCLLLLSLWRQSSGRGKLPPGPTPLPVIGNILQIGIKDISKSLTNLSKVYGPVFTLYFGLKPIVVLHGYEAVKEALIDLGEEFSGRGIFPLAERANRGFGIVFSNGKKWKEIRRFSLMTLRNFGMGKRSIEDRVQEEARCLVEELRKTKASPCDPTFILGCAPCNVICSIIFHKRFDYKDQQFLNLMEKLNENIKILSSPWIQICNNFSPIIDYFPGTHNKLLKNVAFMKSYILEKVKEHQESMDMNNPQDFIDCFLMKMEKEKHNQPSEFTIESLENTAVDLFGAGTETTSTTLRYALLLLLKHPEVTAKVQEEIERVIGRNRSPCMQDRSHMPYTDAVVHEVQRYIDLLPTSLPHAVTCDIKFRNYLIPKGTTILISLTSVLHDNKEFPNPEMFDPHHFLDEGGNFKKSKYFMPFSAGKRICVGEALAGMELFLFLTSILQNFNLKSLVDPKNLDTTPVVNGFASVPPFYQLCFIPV
Sequence of Voltage-gated inwardly rectifying potassium channel KCNH2 (Q12809 whole entry): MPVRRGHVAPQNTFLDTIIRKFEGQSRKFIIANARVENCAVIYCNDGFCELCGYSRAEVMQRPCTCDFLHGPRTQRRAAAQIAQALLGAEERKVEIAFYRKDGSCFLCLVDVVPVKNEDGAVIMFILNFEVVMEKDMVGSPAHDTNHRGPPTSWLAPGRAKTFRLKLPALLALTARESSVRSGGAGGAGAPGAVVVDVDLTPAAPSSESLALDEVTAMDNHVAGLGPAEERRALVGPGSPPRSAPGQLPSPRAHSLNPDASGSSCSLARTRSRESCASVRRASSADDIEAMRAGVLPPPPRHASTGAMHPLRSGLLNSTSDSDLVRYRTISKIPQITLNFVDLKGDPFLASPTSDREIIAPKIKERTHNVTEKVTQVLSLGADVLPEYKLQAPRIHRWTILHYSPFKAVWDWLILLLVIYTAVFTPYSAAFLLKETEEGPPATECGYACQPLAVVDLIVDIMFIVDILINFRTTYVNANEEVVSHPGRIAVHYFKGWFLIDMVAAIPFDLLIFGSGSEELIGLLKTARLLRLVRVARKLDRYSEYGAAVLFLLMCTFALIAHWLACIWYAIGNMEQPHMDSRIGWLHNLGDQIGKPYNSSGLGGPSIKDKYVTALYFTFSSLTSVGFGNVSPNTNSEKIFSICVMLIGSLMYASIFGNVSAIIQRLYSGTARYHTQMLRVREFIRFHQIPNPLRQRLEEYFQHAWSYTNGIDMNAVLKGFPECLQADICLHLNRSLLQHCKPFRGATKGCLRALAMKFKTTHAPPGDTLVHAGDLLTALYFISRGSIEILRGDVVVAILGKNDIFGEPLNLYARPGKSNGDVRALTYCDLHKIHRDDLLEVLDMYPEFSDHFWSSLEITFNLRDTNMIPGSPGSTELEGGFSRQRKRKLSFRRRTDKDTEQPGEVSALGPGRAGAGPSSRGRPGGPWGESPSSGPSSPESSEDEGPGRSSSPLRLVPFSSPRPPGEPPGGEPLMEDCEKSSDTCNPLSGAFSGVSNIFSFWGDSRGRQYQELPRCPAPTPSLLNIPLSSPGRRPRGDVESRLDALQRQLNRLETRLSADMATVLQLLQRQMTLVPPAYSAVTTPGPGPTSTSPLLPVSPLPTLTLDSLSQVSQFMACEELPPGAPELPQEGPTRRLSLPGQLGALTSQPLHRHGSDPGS
Sequence of Peroxisome proliferator-activated receptor gamma/Nuclear receptor coactivator 1 (P37231 whole entry): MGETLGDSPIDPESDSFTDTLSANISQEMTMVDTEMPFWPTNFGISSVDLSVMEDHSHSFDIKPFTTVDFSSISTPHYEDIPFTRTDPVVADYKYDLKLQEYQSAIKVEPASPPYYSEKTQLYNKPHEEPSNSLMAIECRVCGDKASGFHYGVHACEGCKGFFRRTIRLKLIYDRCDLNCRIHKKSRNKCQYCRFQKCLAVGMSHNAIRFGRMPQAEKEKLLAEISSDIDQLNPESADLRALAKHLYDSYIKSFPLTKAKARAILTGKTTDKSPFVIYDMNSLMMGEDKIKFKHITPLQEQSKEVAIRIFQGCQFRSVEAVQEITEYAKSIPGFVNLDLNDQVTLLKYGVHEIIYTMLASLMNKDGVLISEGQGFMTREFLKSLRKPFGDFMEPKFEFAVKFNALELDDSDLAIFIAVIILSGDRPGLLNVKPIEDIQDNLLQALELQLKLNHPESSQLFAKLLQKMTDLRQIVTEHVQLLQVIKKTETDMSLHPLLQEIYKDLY
Sequence of Peroxisome proliferator-activated receptor gamma/Nuclear receptor coactivator 1 (Q15788 whole entry, further chain): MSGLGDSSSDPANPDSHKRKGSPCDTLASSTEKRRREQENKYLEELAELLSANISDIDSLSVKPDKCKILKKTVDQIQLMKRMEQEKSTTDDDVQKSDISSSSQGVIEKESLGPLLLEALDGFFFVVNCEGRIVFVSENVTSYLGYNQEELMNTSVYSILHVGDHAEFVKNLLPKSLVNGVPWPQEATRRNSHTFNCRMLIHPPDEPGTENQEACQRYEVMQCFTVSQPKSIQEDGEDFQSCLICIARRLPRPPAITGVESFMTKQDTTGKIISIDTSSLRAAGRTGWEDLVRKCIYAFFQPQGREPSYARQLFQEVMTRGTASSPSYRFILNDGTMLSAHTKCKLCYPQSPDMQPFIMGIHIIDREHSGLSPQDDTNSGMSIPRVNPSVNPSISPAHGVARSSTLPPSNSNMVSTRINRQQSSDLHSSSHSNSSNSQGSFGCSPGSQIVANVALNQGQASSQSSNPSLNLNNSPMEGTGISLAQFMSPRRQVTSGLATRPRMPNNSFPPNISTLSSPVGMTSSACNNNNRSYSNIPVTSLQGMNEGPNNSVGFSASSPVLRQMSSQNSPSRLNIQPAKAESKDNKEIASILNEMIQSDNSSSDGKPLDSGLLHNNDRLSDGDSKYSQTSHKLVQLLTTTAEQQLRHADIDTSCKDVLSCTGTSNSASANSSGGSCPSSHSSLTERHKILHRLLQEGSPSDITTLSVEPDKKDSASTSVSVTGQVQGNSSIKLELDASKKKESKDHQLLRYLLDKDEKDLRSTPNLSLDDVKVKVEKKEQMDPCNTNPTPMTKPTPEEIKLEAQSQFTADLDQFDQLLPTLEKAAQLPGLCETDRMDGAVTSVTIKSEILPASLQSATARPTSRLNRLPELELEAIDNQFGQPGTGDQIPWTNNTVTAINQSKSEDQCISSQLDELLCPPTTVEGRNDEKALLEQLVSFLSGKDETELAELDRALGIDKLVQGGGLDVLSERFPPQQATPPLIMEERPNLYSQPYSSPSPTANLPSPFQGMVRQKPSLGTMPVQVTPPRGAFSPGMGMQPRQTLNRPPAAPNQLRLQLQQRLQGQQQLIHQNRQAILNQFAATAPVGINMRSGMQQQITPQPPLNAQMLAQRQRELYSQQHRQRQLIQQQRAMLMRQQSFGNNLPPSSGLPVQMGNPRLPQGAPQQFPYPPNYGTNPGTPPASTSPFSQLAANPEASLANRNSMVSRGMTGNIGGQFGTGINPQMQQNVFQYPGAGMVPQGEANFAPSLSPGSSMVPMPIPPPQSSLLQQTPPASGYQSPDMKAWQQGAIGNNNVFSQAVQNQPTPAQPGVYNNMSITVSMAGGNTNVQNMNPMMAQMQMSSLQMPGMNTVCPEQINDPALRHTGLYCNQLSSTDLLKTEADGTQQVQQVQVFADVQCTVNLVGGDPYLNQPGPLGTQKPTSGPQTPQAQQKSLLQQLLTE
Sequence of 5-hydroxytryptamine receptor 2A (P35363 whole entry): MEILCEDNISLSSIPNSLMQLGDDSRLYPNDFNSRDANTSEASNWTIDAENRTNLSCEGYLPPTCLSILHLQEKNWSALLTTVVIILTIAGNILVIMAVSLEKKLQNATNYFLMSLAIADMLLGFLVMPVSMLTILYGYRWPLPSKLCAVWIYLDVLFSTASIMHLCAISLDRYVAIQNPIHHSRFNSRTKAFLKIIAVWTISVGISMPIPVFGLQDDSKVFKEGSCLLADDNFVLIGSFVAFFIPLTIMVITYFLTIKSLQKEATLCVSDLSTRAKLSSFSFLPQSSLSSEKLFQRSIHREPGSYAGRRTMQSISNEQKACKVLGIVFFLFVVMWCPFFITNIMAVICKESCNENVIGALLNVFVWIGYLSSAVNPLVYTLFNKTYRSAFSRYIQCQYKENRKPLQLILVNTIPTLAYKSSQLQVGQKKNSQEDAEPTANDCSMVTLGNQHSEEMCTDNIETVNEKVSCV
Sequence of Mu-type opioid receptor (P35372 whole entry): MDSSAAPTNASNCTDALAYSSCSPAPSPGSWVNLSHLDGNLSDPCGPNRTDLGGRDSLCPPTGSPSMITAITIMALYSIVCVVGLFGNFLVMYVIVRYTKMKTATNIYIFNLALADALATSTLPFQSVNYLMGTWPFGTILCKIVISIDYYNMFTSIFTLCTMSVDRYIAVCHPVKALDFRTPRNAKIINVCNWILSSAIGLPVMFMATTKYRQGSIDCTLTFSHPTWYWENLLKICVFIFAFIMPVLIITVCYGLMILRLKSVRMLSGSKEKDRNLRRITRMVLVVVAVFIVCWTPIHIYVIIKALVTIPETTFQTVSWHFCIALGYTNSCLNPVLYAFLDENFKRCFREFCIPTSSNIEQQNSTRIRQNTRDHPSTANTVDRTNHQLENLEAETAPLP

SMILES: Cc1ccc(C=Nn2c(-c3ccncc3)n[nH]c2=S)cc1
- IC50 [1]: 16.1 µM (active)
- IC50 (Phosphomannomutase 2): > 100 µM (inactive)

SMILES: CC(C)(C)c1ccc(C(=O)N2CCC(=O)c3ccc(Cl)cc32)cc1
- IC50 (Hexokinase): > 25 µM (inactive)

SMILES: O=C(O)c1cccc(CN2CCCCC2)c1
- AC50 (Cytochrome P450 2C9): inconclusive

SMILES: O=C(Cn1sc2ccccc2c1=O)NCc1ccccc1
- IC50 (Hexokinase): 5.72 µM (active)

SMILES: CCc1ccc(-c2nc(CSCC(=O)NCc3ccco3)c(C)o2)cc1
- EC50 [2]: 14.5 µM (active)
- EC50 [3]: 12.8 µM (active)
- EC50 [4]: 0.462 µM (active)
- IC50 (HEK293): > 80 µM (inactive)

SMILES: O=C(NCC(=O)N1CCN(S(=O)(=O)/C=C/c2ccccc2)CC1)c1ccccc1F
- IC50 (Coagulation factor XII): > 50 µM (inactive)

SMILES: Cn1cc(C(F)(F)F)nc1-c1ccc(OCC(O)CNCCOc2ccc(O)c(C(N)=O)c2)cc1 (configuration not stated)
- AC50 [5]: 25.1 µM (inconclusive)
- EC50 (Mu-type opioid receptor): 92.4 µM (inactive)
- EC50 [6]: 0.0952 µM (active)

SMILES: CCN(CCCNC(=O)CSc1cc(=O)n(C)c2cc(Cl)ccc12)Cc1ccccc1
- EC50 [7]: > 79.4 µM (inactive)
- EC50 [8]: > 79.4 µM (not active)
- EC50 [9]: > 79.4 µM (not active)

SMILES: O=C1NC(=S)S/C1=C/c1ccc(Oc2cnccn2)cc1
- AC50 [10]: 2.81 µM (active)

SMILES: COc1ccc(/C=C(\C#N)C(N)=O)c(OC)c1
- AC50 (Cytochrome P450 2C9): inconclusive

SMILES: NC(Cc1cccc(-c2ccccc2CP(=O)(O)O)c1)C(=O)O (configuration not stated)
- AC50 [5]: 35.5 µM (inconclusive)

SMILES: Cc1cccc(C(=O)NC(=S)N2CCN(C)CC2)c1
- AC50 (Cytochrome P450 2C9): inconclusive

SMILES: Cc1cc(C)c2sc(N(CCCN(C)C)C(=O)c3ccc(S(=O)(=O)N(C)Cc4ccccc4)cc3)nc2c1
- IC50 [11]: 2.65 µM (active)
- IC50 (Bcl-2-related protein A1): > 20 µM (inactive)
- IC50 [12]: 4.77 µM (active)

SMILES: CC1Cc2cc3c(cc2C(c2ccc(N)cc2)=NN1)OCO3 (configuration not stated)
- AC50 [5]: 35.5 µM (inconclusive)

SMILES: CCCCN(C)CCNC(=O)c1ccc(Cn2c(=S)[nH]c3ccc(Br)cc3c2=O)cc1
- IC50 [11]: > 20 µM (inactive)
- EC50 [13]: > 60 µM (not active)
- IC50 (Bcl-2-related protein A1): > 20 µM (inactive)
- CC50 [14]: 19.1 µM (active)
- IC50 [12]: 19.5 µM (active)
- EC50 [15]: 0.606 µM (active)

SMILES: CCCCCCC(=O)Nc1cc(Cl)ccc1C(=O)O
- IC50 (Hexokinase): > 25 µM (inactive)

SMILES: CC(=O)c1sc(N2CCOCC2)nc1-c1ccccc1
- EC50 [7]: > 26.5 µM (inactive)
- EC50 [8]: > 8.82 µM (not active)
- EC50 [9]: > 79.4 µM (not active)

SMILES: CN(C)S(=O)(=O)c1ccc(NC(=O)/C=C/c2ccccc2Cl)cc1
- AC50 (CAAX prenyl protease 2): 4.18 µM (active)

SMILES: CCN1CCN(C(=O)CSc2cc(=O)n(C)c3ccccc23)CC1
- EC50 [7]: > 79.4 µM (inactive)
- EC50 [8]: > 79.4 µM (not active)
- EC50 [9]: > 79.4 µM (not active)

SMILES: C[C@@H](O)C1NC(=O)[C@H](CCCCN)NC(=O)c2cc([N+](=O)[O-])cc(F)c2NCCCC[C@@H](C(N)=O)NC1=O (some centres not stated)
- IC50 [11]: > 20 µM (inactive)
- IC50 (Bcl-2-related protein A1): > 20 µM (inactive)
- IC50 [12]: 14.2 µM (active)

SMILES: CCC(C)NC(=O)CSc1nc2ccsc2c(=O)n1NC(=O)c1ccccc1 (configuration not stated)
- IC50 (Coagulation factor XII): > 50 µM (inactive)
